Measured values from patent publication US20240358782A1, “Regulatory Composition of the Neuro-Immune-Endocrine and Cortisol Reducing System of the Human Being” (priority 2020, published 2024).
Marks after values point to notes of the source that are not given here.

Experiments:
[1] = system: chorio-allantoic membrane of hen embryonated egg
From the text: The first step was to evaluate the cytotoxicity of the composition in a chicken embryonated egg chorio-allantoic membrane (HET-CAM) assay (FIG. 1).

monoamine oxidase (MAO) = details: in vitro; cited from earlier work
male Wistar rats [2] = assay: Serum redox state markers after 10 days of oral treatment (Example 1, Phase 1); type: in vivo, rat; details: oral daily 10 days, dose 257 ml/kgPV, mean ± standard error
Protocol: (§1) In Phase 1, the experiment consisted of providing the same amount (in mg), per kg of live weight (mg/kg BW), of each of the components of the composition of this invention, as well as the same amount of the composition, and comparing the effects with that of control animals, which received placebo or the antibiotic Enramycin. After 10 days, an evaluation of the immune system of the […] of each of the groups was carried out.
(§2) In this way, different groups of male Wistar rats were randomly marked on the tails for identification. The animals were adapted to the laboratory environment for one week before the treatments. Initially, after a 6 h fasting period, the body weight of the animals was determined and the dose of the Composition and Enramycin […] were calculated. The animals were divided into 11 (eleven) groups of 10 (ten) individuals. The animals were treated daily, orally (used in the animals used as reference), with placebo (vehicle; filtered water 1 mL/kg BW) or with FOS Ingredion (257 mg/kg BW), FOS Yes (257 mg/kg BW) kgPV), GOS Yes (257 mg/kgPV), Yes MOS (257 mg/kgPV), Yes GlucanMOS (257 mg/kgPV), Glucangold Yes (77 mg/kgPV), Mixture 1 (FOS Yes+GOS Yes) (257 mg/kgPV), Composition of this invention (GlucanGold Yes+GOS Yes+FOS Yes, containing 20% of 1,3 and 1,6 beta-glucans, 29% of GOS and 31% of FOS by mass on total mass %) ([…]). An experimental group called naive underwent simulated gavage (without any treatment). All the animals that composed the different experimental groups received the treatment for 10 days. At the end of the experiments, and before euthanasia, the animals were fasted for 6 hours with free access to water. Final body weight was recorded to calculate relative organ weight. Then, under anesthesia with isoflurane (2-3%), 5 mL of blood was obtained from the left jugular vein for the evaluation of biochemical parameters. After this procedure, the animals were euthanized with a supra-pharmacological dose of isoflurane (10-15%) in a saturation chamber. […]

[3] = system: Salmonella enterica serovar Enteritidis (phagetype PT4); assay: Salmonella challenge: deaths and serum cytokines (Example 1, phase 2); type: in vivo, rat; details: oral treatment 20 days, dose 257 mg/kgPV (Enramicine 96 mg/kgPV)
From the text: In phase 2, the experiment consisted of repeating the treatments of Phase 1, for 10 days, and inoculating the groups, except the so-called naive (negative control), with a high dose of Salmonella enteritidis. After 20 days, the mortality and the behavior of the immune system of the rats of each group were observed.
In this way, different groups of male rats were randomly marked on the tails for identification. The animals were adapted to the laboratory environment for one week before the beginning of the experiments. After a 6 h fasting period, the animals' body weight was determined and the dose of the prebiotics, the composition of this invention and Enramycin were calculated. The animals were divided into 11 (eleven) groups of 10 (ten) individuals. The animals were treated daily, by the oral route (used in the animals used as reference), with placebo (vehicle; filtered water 1 mL/kg BW) or with FOS ingredion (257 mg/kg BW), FOS Yes (257 mg/kg BW). kgPV), GOS Yes (257 mg/kgPV), Yes MOS (257 mg/kgPV), GlucanMOS (257 mg/kgPV), Glucangold Yes (77 mg/kgPV), Mixture 1 (FOS Yes+GOS Yes) (257 mg/kgPV), Composition of this invention (GlucanGold Yes+GOS Yes+FOS Yes, containing 20% of 1,3 and 1,6 beta-glucans, 31% of GOS and 29% of FOS by mass on mass %) ([…]). All treatments were performed for 20 days. After 10 days from the beginning of treatments, the aforementioned groups received a challenge with 1 mL (10^8 colony forming units [cfu]/mL) of a strain of Salmonella enterica serovar Enteritidis (phagetype PT4), orally (gavage).
An experimental group called naive underwent sham gavage (no treatment) and was not infected with any bacterial strain. At the end of the experiments, and before euthanasia, the surviving animals were fasted for 6 hours with free access to water. Then, under anesthesia with isoflurane (2-3%), 5 mL of blood was obtained from the left jugular vein for the evaluation of biochemical parameters. After this procedure, the animals were euthanized with a supra-pharmacological dose of isoflurane (10-15%) in a saturation chamber. Immediately after euthanasia, target organs were removed for analysis.
Table 8, below, indicates the effects of treatments with different isolated components, with the Composition according to the invention, or with Enramincin, on the serum levels of interleukin 10 (IL-10), IL-6 and tumor necrosis factor alpha (TNF-alpha) from male Wistar rats infected with Salmonella enterica.

male Wistar rats [4] = assay: Serum IL-10, IL-6 and TNF-alpha after 10 days of oral treatment (Example 1, Phase 1); type: in vivo, rat; details: oral daily 10 days, dose 257 mg/kgPV (Enramicine 96 mg/kgPV), mean ± standard error
Protocol: as §1, §2

male Wistar rats [5] = assay: Tissue levels of lipoperoxides (LPO) after 10 days of oral treatment (Example 1, Phase 1); type: in vivo, rat; details: oral daily 10 days, mean ± standard error
[6] = serum, Salmonella-infected male Wistar rats, mean ± standard error
[7] = dose 257 mg/kgPV (Enramicine 96 mg/kgPV)
[8] = dose 257 ml/kgPV (Enramicine 96 ml/kgPV)

[Na+].[OH-] [NAOH, Sodium Hydroxide]
hemorrhagic (cytotoxic) effect / irritation on chorio-allantoic membrane [1]: lyse blood vessels, resulting in hemorrhage

COc1cc(C2Oc3cc([C@H]4Oc5cc(O)cc(O)c5C(=O)[C@@H]4O)ccc3OC2CO)ccc1O (stereo partly drawn) [siliinin]
inhibition of monoamine oxidase (MAO) activity (monoamine oxidase (MAO)): inhibits the activity of monoamine oxidase (MAO)

Enramycin [Enramicine]
Malondialdehyde (male Wistar rats [2]): 2.1 ± 0.15 mmol/L
Nitrite (male Wistar rats [2]): 45.3 ± 5.51%
Nitrotirosine (male Wistar rats [2]): 0.007 ± 0.003 µmol/L
Deaths ([3]; male Wistar rats, Salmonella enterica challenge (1 mL, 10^8 cfu/mL) after 10 days): 0%
IL-6 [3, 6]: 249.7 ± 37.7 pg/mL
IL-10 [3, 6]: 16.6 ± 0.9^b pg/ml
TFN-alfa [3, 6]: 10.7 ± 1.1^b pg/ml
IL-6 (male Wistar rats [4]): 210.5 ± 25.5 pg/mL
IL-10 (male Wistar rats [4]): 15.3 ± 5.1 pg/mL
TFN-alfa (male Wistar rats [4]): 8.0 ± 1.5 pg/mL
LPO, Kidneys (male Wistar rats [5]; [7]): 119.4 ± 7.1 U/mg of protein
LPO, Liver (male Wistar rats [5]; [7]): 170.1 ± 14.1 U/mg of protein
LPO, Spleen (male Wistar rats [5]; [7]): 117.5 ± 10.1 U/mg of protein
tissue lipoperoxides (LPO), Cecum (male Wistar rats [5]; [8]): 170.2 ± 10.0
tissue lipoperoxides (LPO), Colon (male Wistar rats [5]; [8]): 230.2 ± 11.2
tissue lipoperoxides (LPO), Ileum (male Wistar rats [5]; [8]): 117.9 ± 14.2
